Assay results from patent US12582720B2, “Compound for preventing or treating lipid metabolism-related diseases” (Fudan University, priority 2020, dated 2026).

Tests used:
[1] = tested on: lipid droplets in SH-SY5Y cells; assay: Reduction of OA-induced lipid droplets in SH-SY5Y cells; format: cell-based, human; conditions: unconjugated compound 5 μM
Text: The reduction of lipid droplets in SH-SY5Y cells by Compound 1A and Compound 2A was detected by a method that was similar to Example 2, and the result was shown in FIG. 18.
The effects of unconjugated LC3 binding Compound A1, A5 and unconjugated lipid droplet probe ORBB […] respectively on lipid droplets in SH-SY5Y cells (FIG. 20A) and MEF cells (FIG. 20B) were detected by a method similar to Example 2.

[2] = tested on: autophagosome-lipid droplet colocalization in MEF cells; assay: Colocalization of autophagosome and lipid droplets in mCherry-LC3B transfected MEF cells; format: cell-based, mouse; conditions: 5 μM, 3 h, compared to DMSO control
How it was run: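 mCherry-LC3B expressed in MEF cells by plasmid transfection; lipid droplets induced with OA at 30 h post-transfection, compound added 6 h later for 3 h. Cells fixed, stained with BODIPY and DAPI, and LC3 puncta around lipid droplets imaged by confocal microscopy.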

db/db mice = assay: Effect of the compound on db/db mouse; format: in vivo; conditions: 30 mg/kg ip, 8 mice per group
Text: Experimental animals: nineteen-week-old db/db male mice (C57BL/6J-Lepr^db/Lepr^db) were obtained from Shanghai Model Organisms Co., Ltd., and acclimatized for at least 1 week before experiments. The mice had ad libitum access to standard chow and water.
Normal control: The C57BL/6 male mice fed on standard irradiated chow diet (Shuyishuer Inc. cat. no. D12450J) from Changzhou Shuyishuer Biotechnology Co., Ltd. (Shuyishuer Inc.) were used as the normal control.
Mice were randomly divided into 7 groups, wherein 8 mice in each group, and the mice in each group were subjected to intraperitoneal injection to administer: (1) only vehicle (no DMSO) group: 0% DMSO+39% PEG300 (Selleck, cat. no. S6704)+5% Tween-80 (Selleck, cat. no. S6702)+56% distilled water, (2) DMSO group: 1% DMSO+39% PEG300+5% Tween-80+55% H2O (DMSO vehicle), (3) C3 group: Compound 3A was in DMSO vehicle, (4) C4 group: Compound 4A in DMSO vehicle, (5) SIII group: Sudan III DMSO vehicle, (6) GW5074 group: Compound A1 in DMSO vehicle, (7) DP group: Compound A5 in DMSO vehicle. For groups (3)-(7), the compound (30 mg/kg, administration volume 150 μL) was administered through intraperitoneally injection for consecutive 2 weeks, and once a day. The food and water intake were measured with an analytical electronic balance.
Bodyweight was weighed every day.
If time permitted, tail vein blood (30-50 μL) was collected every 1-3 days.
24 hours after the time point of the last injection, end point maxillary surface blood sampling was performed on each mouse. All mice were Euthanized by cervical dislocation, and then tissue sample (e.g., liver samples) were obtained and stored in Eppendorf tubes at −80° C. for assay.
12 days after initiation of administration, each mouse was scanned by a minispec nuclear magnetic resonance (NMR) instrument (Bruker LF50 II “Minispec” body composition analyzer, Bruker Optics) that was designed for experimental animals, and based on the measurement of solid and liquid parts of the samples, the body fat and lean body weight were determined by this device.
Serum: Tail vein blood samples (30-50 μL) were left to coagulate in […] blood collection tubes (Jiangsu Kangjian Medical Products Co., Ltd., model KJ002) at room temperature without interference, and then centrifuged at 2,000×g for 10 minutes at 4° C. to remove the clot. Supernatant was collected to obtain the serum.
Liver: Liver samples were obtained as described in (2). 100 mg of liver tissue was homogenized in 0.9 mL of absolute alcohol under ice-cold conditions, and then centrifuged (2,500 r.p.m/min, 10 min). Supernatant was collected, and then stored at −80° C.
The kits were used according to the instruction from manufacturer (TAG: TG kit, cat. no. A110-1-1; TC: T-CHO kit, cat. no. A111-1. FFA: NEFA kit, cat. No. A042-2-1; they were all from Nanjing Jiancheng Bioengineering Institute). TAG, TC and FFA levels in serum and liver samples were determined.
According to the lipidomic method as described above, the contents of liver total lipid, glycerolipid, sterol lipid, neutral sphingolipid and polar lipid were analyzed. The log 2-fold change (log2 FC) and statistical significance (p-value) relative to the DMSO group were calculated.

LC3B = LC3B (Homo sapiens, UniProt Q9GZQ8); assay: OI-RD detection of affinity activity with LC3B; format: binding; parameters: Gly-Gly (two glycines added in place of the start Met); His8 (followed by TEV site) (N, cleaved yes); GST (from the pGEX-6P1 backbone) (N, cleaved yes); made in house; host or cells: Escherichia coli BL21(DE3)pLysS; conditions: LC3B 238 nM, read-out: Kd (nM), equilibrium dissociation constant of affinity reaction between the compound and LC3B detected by OI-RD
Protocol: Each compound was dot printed 3 copies. The compounds that not fixed on surface of the chips were washed, and the chips were sealed and cleaned. OI-RD microscope was used to scan the images. […] The chips were washed and scanned. OI-RD images before, during and after incubation with target protein were obtained. The signal change in real-time dynamic change image was analyzed, and the signal was collected once per 10 millisecond.

## O=C1Nc2ccc(I)cc2C1=Cc1cc(Br)c(O)c(Br)c1 [Compound A1, 3-(3,5-dibromo-4-hydroxylbenzylidene)-5-iodoindolin-2-one, reference compound]
[1]
  lipid droplets (number and size): did not significantly decrease or become smaller
[2]
  ratio of colocalization of red and green aggregation point (autophagosome-lipid droplet): No such effect
db/db mice
  mice died in the experiment: One mouse
LC3B
  Kd: 468 nM
